For test [1], the target named is T1, Full-length human PRMT1 isoform 1 (Homo sapiens, UniProt Q99873).
T1 construct: GST-tagged PRMT1; made in house; host or cells: High Five insect cells (baculovirus, pFastBacI)
Kind of test: PRMT1 biochemical assay (3H-SAM Flashplate, peptide substrate). Put shortly: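 Tritiated methyl transfer from 3H-SAM onto biotinylated peptide, captured on streptavidin Flashplates and counted. Baculovirus-expressed GST-PRMT1 and compound were preincubated 30 min at room temperature in Bicine buffer pH 7.6. Cold SAM at 300 uM final ended the reaction.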

A further test addresses T2, Human CARM1 (PRMT4) (Homo sapiens, UniProt Q86X55).
T2 construct: Flag-CARM1-His was eluted with 200 ug/ml FLAG peptide in buffer A; made in house; host or cells: HEK 293F cells (BacMam virus, pFastBacMam)
T2 sequence (Q86X55 with tags, fused parts or gaps isoform Q86X55-1): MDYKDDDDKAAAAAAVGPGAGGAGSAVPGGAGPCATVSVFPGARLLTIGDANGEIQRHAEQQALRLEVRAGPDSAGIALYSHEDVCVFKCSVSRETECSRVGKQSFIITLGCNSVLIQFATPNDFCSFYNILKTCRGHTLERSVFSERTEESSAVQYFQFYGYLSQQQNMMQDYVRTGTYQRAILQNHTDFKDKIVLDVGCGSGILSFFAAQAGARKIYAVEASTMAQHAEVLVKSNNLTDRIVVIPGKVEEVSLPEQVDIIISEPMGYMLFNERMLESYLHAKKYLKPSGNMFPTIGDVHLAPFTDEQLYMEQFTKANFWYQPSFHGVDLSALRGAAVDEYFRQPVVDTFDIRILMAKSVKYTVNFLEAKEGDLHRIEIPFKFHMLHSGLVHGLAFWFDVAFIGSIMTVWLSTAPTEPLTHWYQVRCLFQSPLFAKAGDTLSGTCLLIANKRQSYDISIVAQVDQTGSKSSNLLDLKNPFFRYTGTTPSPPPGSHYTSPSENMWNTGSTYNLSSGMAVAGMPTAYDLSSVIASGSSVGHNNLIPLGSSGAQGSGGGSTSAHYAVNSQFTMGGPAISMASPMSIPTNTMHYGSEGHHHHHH
Kind of test: CARM1 biochemical assay (3H-SAM Flashplate, peptide substrate). An excerpt:
General Materials. S-adenosylmethionine (SAM), S-adenosylhomocysteine (SAH), bicine, Tween20, dimethylsulfoxide (DMSO), bovine skin gelatin (BSG), sodium butyrate and Tris(2-carboxyethyl)phosphine hydrochloride solution (TCEP) were purchased from Sigma-Aldrich at the highest level of purity possible. ^3H-SAM was purchase from American Radiolabeled Chemicals with a specific activity of 80 Ci/mmol. 384-well streptavidin Flashplates were purchased from PerkinElmer.
Substrates. Peptide representative of human histone H3 residues 16-30 was synthesized with an N-terminal linker-affinity tag motif and a C-terminal amide cap by 21st Century Biochemicals.
Protein Expression. Recombinant baculovirus were generated according to Bac-to-Bac kit instructions (Life Technologies). […] Infections were carried out at 37° C. for 48 hours, harvested by centrifugation, and stored at −80° C. for purification.
Protein Purification. […] Column was washed with 500 mM NaCl in buffer A and Flag-CARM1-His was eluted with 200 ug/ml FLAG peptide in buffer A. Pooled fractions were dialyzed in 20 mM Tris, 150 mM NaCl, 5% glycerol and 1 mM DTT, pH 7.8.
General Procedure for CARM1 Enzyme Assays on Peptide Substrates. The assays were all performed in a buffer consisting of 20 mM Bicine (pH=7.6), 1 mM TCEP, 0.005% BSG, and 0.002% Tween 20, prepared on the day of use. […] DMSO (1 ul) was added to Columns 11, 12, 23, 24, rows A-H for the maximum signal control and 1 ul of SAH, a known product and inhibitor of CARM1, was added to columns 11, 12, 23, 24, rows I-P for the minimum signal control. A cocktail (40 ul) containing the CARM1 enzyme was added by Multidrop Combi (Thermo-Fisher). The compounds were allowed to incubate with CARM1 for 30 min at room temperature, then a cocktail (10 ul) containing ^3H-SAM and peptide was added to initiate the reaction (final volume=51 ul). […] The assays were stopped by the addition of non-radiolabeled SAM (10 ul) to a final concentration of 300 uM, which dilutes the ^3H-SAM to a level where its incorporation into the peptide substrate is no longer detectable. 50 ul of the reaction in the 384-well polypropylene plate was then transferred to a 384-well Flashplate and the biotinylated peptides were allowed to bind to the streptavidin surface for at least 1 hour before being washed once with 0.1% Tween20 in a Biotek ELx405 plate washer. The plates were then read in a PerkinElmer TopCount plate reader to measure the quantity of ^3H-labeled peptide bound to the Flashplate surface, measured as disintegrations per minute (dpm) or alternatively, referred to as counts per minute (cpm).
Where dpm=disintegrations per minute, cmpd=signal in assay well, and min and max are the respective minimum and maximum signal controls.
Where top and bottom are the normally allowed to float, but may be fixed at 100 or 0 respectively in a 3-parameter fit. The Hill Coefficient normally allowed to float but may also be fixed at 1 in a 3-parameter fit. Y is the % inhibition and X is the compound concentration.

T1 sequence (Q99873 with tags, fused parts or gaps): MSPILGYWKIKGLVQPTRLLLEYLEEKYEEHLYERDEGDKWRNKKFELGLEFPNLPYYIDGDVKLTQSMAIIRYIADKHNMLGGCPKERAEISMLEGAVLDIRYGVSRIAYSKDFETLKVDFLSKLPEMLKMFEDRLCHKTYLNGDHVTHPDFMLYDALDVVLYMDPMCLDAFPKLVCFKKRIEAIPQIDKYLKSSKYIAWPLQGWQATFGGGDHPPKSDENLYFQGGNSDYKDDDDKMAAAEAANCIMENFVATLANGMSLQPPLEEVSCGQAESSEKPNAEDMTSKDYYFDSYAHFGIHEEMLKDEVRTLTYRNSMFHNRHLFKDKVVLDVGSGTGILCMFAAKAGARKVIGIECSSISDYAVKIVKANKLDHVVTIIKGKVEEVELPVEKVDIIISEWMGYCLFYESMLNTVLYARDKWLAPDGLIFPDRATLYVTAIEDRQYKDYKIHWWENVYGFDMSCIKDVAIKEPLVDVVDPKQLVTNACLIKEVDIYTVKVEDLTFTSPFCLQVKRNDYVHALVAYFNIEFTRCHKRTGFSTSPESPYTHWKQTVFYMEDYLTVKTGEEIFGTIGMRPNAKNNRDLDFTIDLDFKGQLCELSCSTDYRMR

On to `CN(CCN)Cc1c[nH]nc1-c1cccc(Cl)c1F` [Compound 123], for which the IC50 in test [1] was less than 100 nM; on Human CARM1 (PRMT4), 1010 to 3000 nM.

For `CN(CCN)Cc1c[nH]nc1-c1ccc(F)cc1F` [Compound 99], the IC50 in test [1] was less than 100 nM; against Human CARM1 (PRMT4), 3010 to 10000 nM.

As to `CN(CCN)Cc1c[nH]nc1-c1ccccc1C#N` [Compound 140], the values for the 50% inhibitory concentration (IC50) (in test [1]; against Human CARM1 (PRMT4)) were 101 to 1000 nM and more than 10000 nM, respectively.

Consider `CCOC(=O)c1cccc(-c2n[nH]cc2CN(C)CCN)c1` [Compound 150], for which the values for the IC50 (in test [1]; against Human CARM1 (PRMT4)) were less than 100 nM and 1010 to 3000 nM, respectively.

Consider `CN(CCN)Cc1c[nH]nc1-c1ccc(C(F)(F)F)cc1F` [Compound 148], for which the IC50 in test [1] was 101 to 1000 nM; on Human CARM1 (PRMT4), more than 10000 nM.

Regarding `CN(CCN)Cc1cnn(CC(O)CO)c1-c1ccc(F)cc1` (stereo not shown) [Compound 113], the IC50 in test [1] is 1010 to 3000 nM; at Human CARM1 (PRMT4), more than 10000 nM.

Turning to `CCN(CC)C(=O)c1ccc(-c2n[nH]cc2CN(C)CCN)cc1` [Compound 143], the IC50 in test [1] was 101 to 1000 nM; against Human CARM1 (PRMT4), 3010 to 10000 nM.

On to `CN(CCN)Cc1c[nH]nc1-c1ccc(C2CCOCC2)cc1` [Compound 98], for which the IC50 in test [1] was less than 100 nM; at Human CARM1 (PRMT4), 101 to 1000 nM.

Consider `CN(CCN)Cc1c[nH]nc1-c1ccc(C(F)(F)F)c(F)c1` [Compound 141], for which the IC50 in test [1] is less than 100 nM; against Human CARM1 (PRMT4) it was 1010 to 3000 nM.

For `CN(CCN)Cc1c[nH]nc1-c1cc(F)cc(Cl)c1` [Compound 121], the IC50 in test [1] was less than 100 nM; on Human CARM1 (PRMT4) it was 101 to 1000 nM.

As to `COc1ccccc1-c1n[nH]cc1CN(C)CCN` [Compound 109], the IC50 in test [1] is 101 to 1000 nM; against Human CARM1 (PRMT4), 3010 to 10000 nM.

In the case of `Cc1c(F)cccc1-c1n[nH]cc1CN(C)CCN` [Compound 129], the IC50 was 101 to 1000 nM in test [1] and 1010 to 3000 nM at Human CARM1 (PRMT4).

`Cc1ccc(-c2n[nH]cc2CN(C)CCN)c(F)c1` [Compound 108]: the IC50 in test [1] is less than 100 nM; on Human CARM1 (PRMT4), 1010 to 3000 nM.

For the molecule `CC(C)c1ccc(-c2c[nH]nc2CN(C)CCN)cc1` [Compound 101], the IC50 is less than 100 nM in test [1] and 3010 to 10000 nM on Human CARM1 (PRMT4).

In the case of `CN(CCN)Cc1c[nH]nc1-c1ccc(Cl)cc1F` [Compound 132], the results for the IC50 (in test [1]; at Human CARM1 (PRMT4)) were less than 100 nM and 1010 to 3000 nM, respectively.

For the molecule `CCNC(=O)c1ccc(-c2n[nH]cc2CN(C)CCN)cc1` [Compound 136], the results for the IC50 (in test [1]; against Human CARM1 (PRMT4)) were less than 100 nM and 1010 to 3000 nM, respectively.

As for `CN(CCN)Cc1c[nH]nc1-c1cc(C#N)ccc1Cl` [Compound 147], the IC50 in test [1] was 1010 to 3000 nM; against Human CARM1 (PRMT4), more than 10000 nM.

`CN(CCN)Cc1n[nH]cc1-c1ccc(C#N)cc1` [Compound 100]: the IC50 was less than 100 nM in test [1] and 3010 to 10000 nM at Human CARM1 (PRMT4).

For the molecule `CN(CCN)Cc1n[nH]cc1-c1ccc(OC2CC2)cc1` [Compound 119], the half-maximal inhibitory concentration (IC50) in test [1] was less than 100 nM; against Human CARM1 (PRMT4), 101 to 1000 nM.

Regarding `COc1cc(-c2n[nH]cc2CN(C)CCN)ccc1F` [Compound 142], the IC50 was less than 100 nM in test [1] and 1010 to 3000 nM against Human CARM1 (PRMT4).

For the molecule `COc1cccc(-c2n[nH]cc2CN(C)CCN)c1` [Compound 130], the IC50 in test [1] fell in the range of 101 to 1000 nM; on Human CARM1 (PRMT4) it was 1010 to 3000 nM.

With `CN(CCN)Cc1c[nH]nc1-c1cccc(N(C)C)c1` [Compound 149], the IC50 in test [1] was less than 100 nM; on Human CARM1 (PRMT4) it was 1010 to 3000 nM.

Regarding `COc1ccc(-c2n[nH]cc2CN(C)CCN)cc1Cl` [Compound 125], the IC50 in test [1] is less than 100 nM; at Human CARM1 (PRMT4), 1010 to 3000 nM.

As to `Cc1ccc(-c2n[nH]cc2CN(C)CCN)cc1Cl` [Compound 126], the IC50 in test [1] is less than 100 nM; on Human CARM1 (PRMT4), 101 to 1000 nM.

Regarding `CN(CCN)Cc1c[nH]nc1-c1cc(Cl)cc(Cl)c1` [Compound 137], the values for the IC50 (in test [1]; against Human CARM1 (PRMT4)) were less than 100 nM and 101 to 1000 nM, respectively.

As to `CN(CCN)Cc1n[nH]cc1-c1ccc(C(F)(F)F)cc1` [Compound 103], the results for the half-maximal inhibitory concentration (IC50) (in test [1]; on Human CARM1 (PRMT4)) were less than 100 nM and 1010 to 3000 nM, respectively.

As to `CN(CCN)Cc1c[nH]nc1-c1ccc(C2CC2)cc1` [Compound 116], the IC50 in test [1] is less than 100 nM; against Human CARM1 (PRMT4), 1010 to 3000 nM.

For `Cc1ccc(C#N)cc1-c1n[nH]cc1CN(C)CCN` [Compound 158], the values for the IC50 (in test [1]; at Human CARM1 (PRMT4)) were 1010 to 3000 nM and more than 10000 nM, respectively.

As for `CC(O)c1ccc(-c2n[nH]cc2CN(C)CCN)cc1` (stereo not shown) [Compound 115], the IC50 in test [1] was less than 100 nM; against Human CARM1 (PRMT4), 3010 to 10000 nM.

Take `CN(CCN)Cc1cn(CC2CCOCC2)nc1-c1ccc(F)cc1` [Compound 128]: the 50% inhibitory concentration (IC50) in test [1] is 3010 to 10000 nM; against Human CARM1 (PRMT4), more than 10000 nM.

Regarding `COc1cc(Cl)cc(-c2n[nH]cc2CN(C)CCN)c1` [Compound 127], the figures for the IC50 (in test [1]; at Human CARM1 (PRMT4)) were less than 100 nM and 1010 to 3000 nM, respectively.

Take `CN(CCN)Cc1c[nH]nc1-c1cc(Cl)ccc1F` [Compound 156]: the IC50 lay within 101 to 1000 nM in test [1] and 3010 to 10000 nM against Human CARM1 (PRMT4).

Broadly, the IC50 is the point on the concentration scale where inhibition reaches its midpoint. Lower therefore signals greater potency.

Source of the values: US9346761B2, “Arginine methyltransferase inhibitors and uses thereof” (Epizyme, Inc., priority 2013, dated 2016).
